biological target: T1, recombinant human 17β-HSD1 (Homo sapiens, UniProt P14061); experiment: Inhibition of recombinant human 17β-HSD1 (estrone to estradiol conversion, HPLC/radioactivity); type: biochemical; details: compound 100 nM; 30 nM estrone, 1 mM NADPH, 30 min RT
T1 construct: made in house; host or cells: Sd9 (Sf9) insect cells, baculovirus (Bac to Bac Expression System)
T1 sequence (P14061 1-328): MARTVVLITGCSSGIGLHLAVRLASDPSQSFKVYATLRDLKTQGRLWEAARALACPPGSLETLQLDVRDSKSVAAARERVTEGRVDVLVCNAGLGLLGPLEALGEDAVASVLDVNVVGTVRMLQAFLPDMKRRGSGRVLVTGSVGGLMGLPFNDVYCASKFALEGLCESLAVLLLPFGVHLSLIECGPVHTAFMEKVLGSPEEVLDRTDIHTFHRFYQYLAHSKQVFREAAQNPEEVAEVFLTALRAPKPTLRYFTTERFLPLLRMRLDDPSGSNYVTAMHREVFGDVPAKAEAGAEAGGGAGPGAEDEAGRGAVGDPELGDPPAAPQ
Method in brief: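 Microsomal human 17β-HSD1 from Sf9 baculovirus (1 μg/ml) was incubated 30 min at RT in 20 mM KH2PO4 pH 7.4 with 30 nM ^3H-estrone, 1 mM NADPH and inhibitor at 1 μM or 0.1 μM (1% DMSO). Estrone and estradiol were separated by HPLC with radioactivity detection. % inhibition = 100 − % conversion relative to uninhibited control.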

SMILES	inhibition at 0.1 µM [%]
C[C@]12CCC3c4ccc(F)cc4CCC3C1[C@H](CCC(=O)Nc1ccc(F)cn1)c1c[nH]nc12 (stereo partly drawn) [Compound 99, 3-((8aS,12S)-4-fluoro-8a-methyl-1,2,6b,7,8,8a,10,12,12a,12b-decahydronaphtho[2′,1′:4,5]indeno[1,2-c]pyrazol-12-yl)-N-(5-fluoropyridin-2-yl)propanamide]	84
C[C@]12CCC3c4ccc(Cl)cc4CCC3C1[C@H](CCC(=O)Nc1cc3c([nH]c1=O)CCCC3)c1c[nH]nc12 (stereo partly drawn) [Compound 123, 3-((8aS,12S)-4-chloro-8a-methyl-1,2,6b,7,8,8a,10,12,12a,12b-decahydronaphtho[2′,1′:4,5]indeno[1,2-c]pyrazol-12-yl)-N-(2-oxo-1,2,5,6,7,8-hexahydroquinolin-3-yl) propanamide]	87
CN(C)C(=O)c1ccc(NC(=O)CC[C@@H]2c3c[nH]nc3[C@@]3(C)CCC4c5ccc(Cl)cc5CCC4C23)nc1 (stereo partly drawn) [Compound 126, 6-(3-((8aS,12S)-4-chloro-8a-methyl-1,2,6b,7,8,8a,10,12,12a,12b-decahydronaphtho[2′,1′:4,5]indeno[1,2-c]pyrazol-12-yl)propanamido)-N,N-dimethylnicotinamide]	89
CC(C)c1ccc(NC(=O)CC[C@@H]2c3c[nH]nc3[C@@]3(C)CCC4c5ccccc5CCC4C23)nc1 (stereo partly drawn) [Compound 138, N-(5-isopropylpyridin-2-yl)-3-((8aS,12S)-8a-methyl-1,2,6b,7,8,8a,10,12,12a,12b-decahydronaphtho[2′,1′:4,5]indeno[1,2-c]pyrazol-12-yl)propanamide]	94
COc1ccc(NC(=O)CC[C@@H]2c3c[nH]nc3[C@@]3(C)CCC4c5ccccc5CCC4C23)nc1 (stereo partly drawn) [Compound 141, N-(5-methoxypyridin-2-yl)-3-((8aS,12S)-8a-methyl-1,2,6b,7,8,8a,10,12,12a,12b-decahydronaphtho[2′,1′:4,5]indeno[1,2-c]pyrazol-12-yl)propanamide]	93
COc1ccc(NC(=O)CC[C@@H]2c3c[nH]nc3[C@@]3(C)CCC4c5ccccc5CCC4C23)nn1 (stereo partly drawn) [Compound 156, N-(6-methoxypyridazin-3-yl)-3-((8aS,12S)-8a-methyl-1,2,6b,7,8,8a,10,12,12a,12b-decahydronaphtho[2′,1′:4,5]indeno[1,2-c]pyrazol-12-yl)propanamide]	81
C[C@]12CCC3c4ccccc4CCC3C1[C@H](CCC(=O)Nc1ccc(F)cn1)c1c[nH]nc12 (stereo partly drawn) [Compound 159, N-(5-fluoropyridin-2-yl)-3-((8aS,12S)-8a-methyl-1,2,6b,7,8,8a,10,12,12a,12b-decahydronaphtho[2′,1′:4,5]indeno[1,2-c]pyrazol-12-yl)propanamide]	90
C[C@]12CCC3c4ccccc4CCC3C1[C@H](CCC(=O)Nc1cc(F)ccn1)c1c[nH]nc12 (stereo partly drawn) [Compound 162, N-(4-fluoropyridin-2-yl)-3-((8aS,12S)-8a-methyl-1,2,6b,7,8,8a,10,12,12a,12b-decahydronaphtho[2′,1′:4,5]indeno[1,2-c]pyrazol-12-yl)propanamide]	91
COc1ccnc(NC(=O)CC[C@@H]2c3c[nH]nc3[C@@]3(C)CCC4c5ccccc5CCC4C23)c1 (stereo partly drawn) [Compound 165, N-(4-methoxypyridin-2-yl)-3-((8aS,12S)-8a-methyl-1,2,6b,7,8,8a,10,12,12a,12b-decahydronaphtho[2′1′:4,5]indeno[1,2-c]pyrazol-12-yl)propanamide]	85
Cc1ccnc(NC(=O)CC[C@@H]2c3c[nH]nc3[C@@]3(C)CCC4c5ccccc5CCC4C23)c1 (stereo partly drawn) [Compound 168, 3-((8aS,12S)-8a-methyl-1,2,6b,7,8,8a,10,12,12a,12b-decahydronaphtho[2′,1′:4,5]indeno[1,2-c]pyrazol-12-yl)-N-(4-methylpyridin-2-yl)propanamide]	90
C[C@]12CCC3c4ccccc4CCC3C1[C@H](CCC(=O)Nc1ccccn1)c1c[nH]nc12 (stereo partly drawn) [Compound 171, 3-((8aS,12S)-8a-methyl-1,2,6b,7,8,8a,10,12,12a,12b-decahydronaphtho[2′,1′:4,5]indeno[1,2-c]pyrazol-12-yl)-N-(pyridin-2-yl)propanamide]	89
C[C@]12CCC3c4ccccc4CCC3C1[C@H](CCC(=O)Nc1cnccn1)c1c[nH]nc12 (stereo partly drawn) [Compound 189, 3-((8aS,12S)-8a-methyl-1,2,6b,7,8,8a,10,12,12a,12b-decahydronaphtho[2′,1′:4,5]indeno[1,2-c]pyrazol-12-yl)-N-(pyrazin-2-yl)propanamide]	90
C[C@]12CCC3c4cccc(F)c4CCC3C1[C@H](CCC(=O)NC1CCCCC1)c1c[nH]nc12 (stereo partly drawn) [Compound 207, N-cyclohexyl-3-((8aS,12S)-3-fluoro-8a-methyl-1,2,6b,7,8,8a,10,12,12a,12b-decahydronaphtho[2′,1′:4,5]indeno[1,2-c]pyrazol-12-yl)propanamide]	95
C[C@]12CCC3c4cccc(F)c4CCC3C1[C@H](CCC(=O)N1CCCC1)c1c[nH]nc12 (stereo partly drawn) [Compound 210, 3-((8aS,12S)-3-fluoro-8a-methyl-1,2,6b,7,8,8a,10,12,12a,12b-decahydronaphtho[2′,1′:4,5]indeno[1,2-c]pyrazol-12-yl)-1-(pyrrolidin-1-yl)propan-1-one]	94
CCN(CC)C(=O)CC[C@@H]1c2c[nH]nc2[C@@]2(C)CCC3c4cccc(F)c4CCC3C12 (stereo partly drawn) [Compound 216, N,N-diethyl-3-((8aS,12S)-3-fluoro-8a-methyl-1,2,6b,7,8,8a,10,12,12a,12b-decahydronaphtho[2′,1′:4,5]indeno[1,2-c]pyrazol-12-yl)propanamide]	93
C[C@]12CCC3c4cccc(F)c4CCC3C1[C@H](CCC(=O)N1CCC3(CCOCC3)C1)c1c[nH]nc12 (stereo partly drawn) [Compound 219, 3-((8aS,12S)-3-fluoro-8a-methyl-1,2,6b,7,8,8a,10,12,12a,12b-decahydronaphtho[2′,1′:4,5]indeno[1,2-c]pyrazol-12-yl)-1-(8-oxa-2-azaspiro[4.5]decan-2-yl)propan-1-one]	91
CN(C)C(=O)CC[C@@H]1c2c[nH]nc2[C@@]2(C)CCC3c4cccc(F)c4CCC3C12 (stereo partly drawn) [Compound 222, 3-((8aS,12S)-3-fluoro-8a-methyl-1,2,6b,7,8,8a,10,12,12a,12b-decahydronaphtho[2′,1′:4,5]indeno[1,2-c]pyrazol-12-yl)-N,N-dimethylpropanamide]	91
C[C@]12CCC3c4cccc(F)c4CCC3C1[C@H](CCC(=O)Nc1ncccc1F)c1c[nH]nc12 (stereo partly drawn) [Compound 231, 3-((8aS,12S)-3-fluoro-8a-methyl-1,2,6b,7,8,8a,10,12,12a,12b-decahydronaphtho[2′,1′:4,5]indeno[1,2-c]pyrazol-12-yl)-N-(3-fluoropyridin-2-yl)propanamide]	86

From patent US20220041647A1, “ESTRA-1,3,5(10)-TRIENE COMPOUNDS CONDENSED IN POSITION 16(17) WITH A PYRAZOLE RING AS INHIBITORS OF 17-HSD1” (FORENDO PHARMA LTD, priority 2018, published 2022)
